For experiment [1], the target named is KDR (phospho-KDR, VEGF165-stimulated HUVEC cells) (Homo sapiens (Human), UniProt P35968). Nature of the experiment: KDR autophosphorylation ELISA in HUVEC cells (Example G). In kind it is cell-based. The settings on record: cellular activity; KDR autophosphorylation ELISA in HUVEC cells. An outline of the steps:
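Read-out: phospho-KDR in cell lysates by DuoSet IC ELISA, normalised between VEGF-stimulated DMSO wells (100%) and unstimulated wells (0%). Human endothelial cells were starved overnight in serum-free medium, exposed to compound for 1 h, and then pulsed with 100 ng/mL VEGF165 for 5 min.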

For experiment [2], the target named is Met (phospho-Met, HGF-stimulated PC-3 prostate cancer cells) (Homo sapiens (Human), UniProt P08581). Nature of the experiment: Met autophosphorylation ELISA in PC-3 cells (Example F). The format is cell-based. The settings on record: cellular activity; Met autophosphorylation ELISA in PC-3 cells; read-out: c-Met IC50. An outline of the steps:
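Serum-starved (3 h) PC-3 cells were treated 1 h with compounds (8-point curve, 0.3% DMSO), then stimulated with 100 ng/mL human HGF for 10 min. Lysate phospho-Met (panTyr) was measured by sandwich ELISA, normalised to DMSO and reference-inhibitor controls. IC50 came from 4-parameter logistic fit.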
A general note: ELISA stands for enzyme-linked immunosorbent assay.

Counter-ions that a name gives are not always drawn.

Sequence of Met (phospho-Met, HGF-stimulated PC-3 prostate cancer cells) (P08581 25-1390): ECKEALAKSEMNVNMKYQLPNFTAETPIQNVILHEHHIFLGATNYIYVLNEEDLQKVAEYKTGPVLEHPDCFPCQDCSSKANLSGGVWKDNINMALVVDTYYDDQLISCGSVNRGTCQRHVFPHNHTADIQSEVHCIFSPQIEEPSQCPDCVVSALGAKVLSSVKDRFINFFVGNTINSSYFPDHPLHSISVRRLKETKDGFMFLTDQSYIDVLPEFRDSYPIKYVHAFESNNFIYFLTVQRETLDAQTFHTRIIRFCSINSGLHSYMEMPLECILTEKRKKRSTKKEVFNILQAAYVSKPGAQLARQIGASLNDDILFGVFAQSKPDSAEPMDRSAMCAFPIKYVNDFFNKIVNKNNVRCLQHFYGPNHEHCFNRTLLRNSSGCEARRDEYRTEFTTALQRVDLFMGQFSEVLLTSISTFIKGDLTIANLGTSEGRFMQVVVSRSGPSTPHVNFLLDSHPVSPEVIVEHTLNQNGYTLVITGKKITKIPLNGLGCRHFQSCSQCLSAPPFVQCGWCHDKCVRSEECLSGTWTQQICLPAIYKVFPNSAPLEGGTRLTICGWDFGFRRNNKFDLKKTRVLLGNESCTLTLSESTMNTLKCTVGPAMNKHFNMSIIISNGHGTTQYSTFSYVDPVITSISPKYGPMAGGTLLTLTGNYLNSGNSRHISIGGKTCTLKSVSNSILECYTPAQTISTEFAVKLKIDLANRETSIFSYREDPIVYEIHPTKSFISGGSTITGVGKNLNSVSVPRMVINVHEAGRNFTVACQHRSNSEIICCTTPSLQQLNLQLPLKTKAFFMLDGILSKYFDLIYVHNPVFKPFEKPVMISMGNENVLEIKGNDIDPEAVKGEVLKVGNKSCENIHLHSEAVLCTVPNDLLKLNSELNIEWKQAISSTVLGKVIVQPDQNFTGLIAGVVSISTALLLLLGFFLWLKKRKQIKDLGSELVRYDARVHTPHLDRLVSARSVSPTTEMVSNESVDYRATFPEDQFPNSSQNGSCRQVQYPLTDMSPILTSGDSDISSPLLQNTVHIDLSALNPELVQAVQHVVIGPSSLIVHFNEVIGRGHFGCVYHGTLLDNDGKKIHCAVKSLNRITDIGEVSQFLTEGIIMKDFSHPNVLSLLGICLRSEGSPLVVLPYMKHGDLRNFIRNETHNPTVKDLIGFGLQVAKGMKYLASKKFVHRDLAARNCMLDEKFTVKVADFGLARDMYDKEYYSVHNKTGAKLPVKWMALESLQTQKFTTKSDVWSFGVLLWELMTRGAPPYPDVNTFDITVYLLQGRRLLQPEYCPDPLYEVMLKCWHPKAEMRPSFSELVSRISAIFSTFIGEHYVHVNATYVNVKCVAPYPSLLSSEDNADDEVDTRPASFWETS
Sequence of KDR (phospho-KDR, VEGF165-stimulated HUVEC cells) (P35968 20-1356): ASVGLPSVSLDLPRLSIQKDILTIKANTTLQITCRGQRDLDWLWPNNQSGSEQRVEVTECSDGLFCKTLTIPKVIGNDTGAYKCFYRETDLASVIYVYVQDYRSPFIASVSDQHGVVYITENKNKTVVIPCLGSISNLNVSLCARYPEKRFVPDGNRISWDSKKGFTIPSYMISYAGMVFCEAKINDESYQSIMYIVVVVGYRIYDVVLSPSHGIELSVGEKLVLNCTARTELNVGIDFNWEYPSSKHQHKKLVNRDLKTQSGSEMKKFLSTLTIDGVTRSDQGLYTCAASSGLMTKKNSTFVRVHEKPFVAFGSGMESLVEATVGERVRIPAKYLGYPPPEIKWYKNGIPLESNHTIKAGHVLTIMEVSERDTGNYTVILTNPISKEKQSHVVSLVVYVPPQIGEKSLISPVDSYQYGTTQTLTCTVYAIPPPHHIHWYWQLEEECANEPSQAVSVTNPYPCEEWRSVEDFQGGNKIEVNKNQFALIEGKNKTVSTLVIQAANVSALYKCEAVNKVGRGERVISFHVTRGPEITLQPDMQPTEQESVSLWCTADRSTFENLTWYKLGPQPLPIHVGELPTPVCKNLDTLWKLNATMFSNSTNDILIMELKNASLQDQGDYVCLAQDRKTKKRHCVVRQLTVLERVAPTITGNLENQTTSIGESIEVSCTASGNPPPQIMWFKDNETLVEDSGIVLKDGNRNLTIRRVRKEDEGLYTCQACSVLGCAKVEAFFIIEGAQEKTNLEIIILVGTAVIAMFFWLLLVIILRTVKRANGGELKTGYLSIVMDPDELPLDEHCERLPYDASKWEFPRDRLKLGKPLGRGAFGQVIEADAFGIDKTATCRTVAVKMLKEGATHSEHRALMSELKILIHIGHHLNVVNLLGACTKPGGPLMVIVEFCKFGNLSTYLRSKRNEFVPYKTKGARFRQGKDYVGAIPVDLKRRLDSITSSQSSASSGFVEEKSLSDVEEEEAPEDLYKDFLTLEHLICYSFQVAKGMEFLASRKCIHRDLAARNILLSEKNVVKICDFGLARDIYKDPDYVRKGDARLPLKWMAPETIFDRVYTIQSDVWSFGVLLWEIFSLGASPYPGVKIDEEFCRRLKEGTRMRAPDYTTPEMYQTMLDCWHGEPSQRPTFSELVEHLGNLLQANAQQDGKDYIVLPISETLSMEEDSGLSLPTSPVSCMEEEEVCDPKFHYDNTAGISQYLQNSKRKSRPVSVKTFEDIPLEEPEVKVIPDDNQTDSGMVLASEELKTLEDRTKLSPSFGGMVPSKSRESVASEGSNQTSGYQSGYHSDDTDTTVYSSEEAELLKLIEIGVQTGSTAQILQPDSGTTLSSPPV

For `COc1cc2nccc(Oc3ccc(NC(=O)c4cn(OC)cc(-c5ccc(F)cc5)c4=O)cc3F)c2nc1OC` [Compound 126, N-[4-[(6,7-Dimethoxy-1,5-naphthyridin-4-yl)oxy]-3-fluorophenyl]-5-(4-fluorophenyl)-1-methoxy-4-oxopyridine-3-carboxamide], the IC50 in experiment [1] and in experiment [2] was under 0.1 µM each time.

As for `COc1cc2nccc(Oc3ccc(NC(=O)c4cn(-c5cnn(C)c5)c(C)c(-c5ccc(F)cc5)c4=O)cc3F)c2nc1OC` [Compound 140, N-[4-[(6,7-Dimethoxy-1,5-naphthyridin-4-yl)oxy]-3-fluorophenyl]-5-(4-fluorophenyl)-6-methyl-1-(1-methylpyrazol-4-yl)-4-oxopyridine-3-carboxamide], the IC50 (usually the concentration that gives 50% inhibition) in experiment [1] is over 0.3 µM; in experiment [2], under 0.1 µM.

`Cc1ncc(C(=O)Nc2ccc(Oc3ccnc4cnccc34)cc2)c(O)c1-c1ccc(F)cc1` [Compound 643, 5-(4-fluorophenyl)-4-hydroxy-6-methyl-N-[4-(1,7-naphthyridin-4-yloxy)phenyl]pyridine-3-carboxamide]: the IC50 in experiment [1] and in experiment [2] was under 0.1 µM throughout.

Regarding `COc1cc2nccc(Oc3ccc(NC(=O)c4cnc(N)n(-c5ccc(F)cc5)c4=O)cc3F)c2nc1OC` [Compound 565, 2-Amino-N-[4-[(6,7-dimethoxy-1,5-naphthyridin-4-yl)oxy]-3-fluorophenyl]-1-(4-fluorophenyl)-6-oxopyrimidine-5-carboxamide], the IC50 in experiment [1] and in experiment [2] was under 0.1 µM in each case.

For `COC(=O)c1cnc2c(Oc3ccc(NC(=O)c4cnc(C)c(-c5ccc(F)cc5)c4O)cc3F)ccnc2c1` [Compound 138, Methyl 8-[2-fluoro-4-[[5-(4-fluorophenyl)-4-hydroxy-6-methylpyridine-3-carbonyl]amino]phenoxy]-1,5-naphthyridine-3-carboxylate], the IC50 in experiment [1] is 0.1 to 0.3 µM; in experiment [2] it was over 0.3 µM.

Consider `COc1cnc2c(Oc3ccc(NC(=O)c4cn(C(C)C)c(C)c(-c5ccc(F)cc5)c4=O)cc3F)ccnc2c1` [Compound 121, N-[3-Fluoro-4-[(7-methoxy-1,5-naphthyridin-4-yl)oxy]phenyl]-5-(4-fluorophenyl)-6-methyl-4-oxo-1-propan-2-ylpyridine-3-carboxamide], for which the half-inhibitory concentration (IC50) in experiment [1] was over 0.3 µM; in experiment [2], under 0.1 µM.

With `COc1cnc2c(Oc3ccc(NC(=O)c4cncc(-c5ccc(F)cc5)c4O)cc3)ccnc2c1` [Compound 146, 5-(4-Fluorophenyl)-4-hydroxy-N-[4-[(7-methoxy-1,5-naphthyridin-4-yl)oxy]phenyl]pyridine-3-carboxamide], the IC50 in experiment [1] and in experiment [2] was under 0.1 µM in each case.

On to `Cc1nc2c(Oc3ccc(NC(=O)c4cnc(C)c(-c5ccc(F)cc5)c4O)cc3F)ccnc2cc1-c1cnn(C(F)F)c1` [Compound 615, N-[4-[[7-[1-(Difluoromethyl)pyrazol-4-yl]-6-methyl-1,5-naphthyridin-4-yl]oxy]-3-fluorophenyl]-5-(4-fluorophenyl)-4-hydroxy-6-methylpyridine-3-carboxamide hydrochloride], for which the IC50 in experiment [1] and in experiment [2] was under 0.1 µM throughout.

As to `COc1cc2ncnc(Oc3ccc(NC(=O)c4cn(C(C)C)cc(-c5ccc(F)cc5)c4=O)cc3F)c2nc1OC` [Compound 636, N-[4-(6,7-dimethoxypyrido[3,2-d]pyrimidin-4-yl)oxy-3-fluorophenyl]-5-(4-fluorophenyl)-4-oxo-1-propan-2-ylpyridine-3-carboxamide], the IC50 in experiment [1] is over 0.3 µM; in experiment [2], under 0.1 µM.

Regarding `COc1cc2nccc(Oc3ccc(NC(=O)c4cn(C(C)C)c(C)c(-c5ccc(F)cc5)c4=O)cc3F)c2nc1N` [Compound 579, N-[4-[(6-Amino-7-methoxy-1,5-naphthyridin-4-yl)oxy]-3-fluorophenyl]-5-(4-fluorophenyl)-6-methyl-4-oxo-1-propan-2-ylpyridine-3-carboxamide], the IC50 in experiment [1] was over 0.3 µM; in experiment [2] it was under 0.1 µM.

As to `COCCOc1nc2c(Oc3ccc(NC(=O)c4cnc(C)c(-c5ccc(F)cc5C)c4O)cc3F)ccnc2cc1OC` [Compound 144, N-[3-Fluoro-4-[[7-methoxy-6-(2-methoxyethoxy)-1,5-naphthyridin-4-yl]oxy]phenyl]-5-(4-fluoro-2-methylphenyl)-4-hydroxy-6-methylpyridine-3-carboxamide], the IC50 in experiment [1] and in experiment [2] was under 0.1 µM in each case.

As for `COc1cnc2c(Oc3ccc(NC(=O)c4cn(C(C)C)cc(-c5ccc(F)cc5)c4=O)cc3F)ccnc2c1` [Compound 123, N-[3-Fluoro-4-[(7-methoxy-1,5-naphthyridin-4-yl)oxy]phenyl]-5-(4-fluorophenyl)-4-oxo-1-propan-2-ylpyridine-3-carboxamide], the half-inhibitory concentration (IC50) was over 0.3 µM in experiment [1] and under 0.1 µM in experiment [2].

On to `Cc1ncc(C(=O)Nc2ccc(Oc3ccnc4cc(-c5cnn(C(F)F)c5)cnc34)cc2)c(O)c1-c1ccc(F)cc1` [Compound 611, N-[4-[[7-[1-(Difluoromethyl)pyrazol-4-yl]-1,5-naphthyridin-4-yl]oxy]phenyl]-5-(4-fluorophenyl)-4-hydroxy-6-methylpyridine-3-carboxamide], for which the IC50 in experiment [1] and in experiment [2] was under 0.1 µM each time.

For `CCn1cc(C(=O)Nc2ccc(Oc3ccnc4cc(OC)c(OC)nc34)cc2)c(=O)c(-c2ccc(F)cc2)c1` [Compound 167, N-[4-[(6,7-Dimethoxy-1,5-naphthyridin-4-yl)oxy]phenyl]-1-ethyl-5-(4-fluorophenyl)-4-oxopyridine-3-carboxamide], the IC50 in experiment [1] and in experiment [2] was under 0.1 µM throughout.

As to `CCn1cc(C(=O)Nc2ccc(Oc3ccnc4cc(OC)cnc34)cc2)c(=O)c(-c2ccc(F)cc2)c1` [Compound 169, 1-Ethyl-5-(4-fluorophenyl)-N-[4-[(7-methoxy-1,5-naphthyridin-4-yl)oxy]phenyl]-4-oxopyridine-3-carboxamide], the IC50 in experiment [1] was over 0.3 µM; in experiment [2] it was under 0.1 µM.

Take `CCn1cc(C(=O)Nc2ccc(Oc3ccnc4cc(OC)cnc34)c(F)c2)c(=O)c(-c2ccc(F)cc2)c1` [Compound 170, 1-Ethyl-N-[3-fluoro-4-[(7-methoxy-1,5-naphthyridin-4-yl)oxy]phenyl]-5-(4-fluorophenyl)-4-oxopyridine-3-carboxamide]: the IC50 in experiment [1] was over 0.3 µM; in experiment [2], under 0.1 µM.

With `COc1cc2nccc(Oc3ccc(NC(=O)c4c(C)nc(C)c(-c5ccc(F)cc5)c4O)cc3)c2nc1OC` [Compound 173, N-[4-[(6,7-Dimethoxy-1,5-naphthyridin-4-yl)oxy]phenyl]-5-(4-fluorophenyl)-4-hydroxy-2,6-dimethylpyridine-3-carboxamide], the IC50 in experiment [1] and in experiment [2] was under 0.1 µM each time.

Consider `COc1nc2c(Oc3ccc(NC(=O)c4cn(C(C)C)cc(-c5ccc(F)cc5)c4=O)cc3F)ccnc2cc1Br` [Compound 131, N-[4-[(7-Bromo-6-methoxy-1,5-naphthyridin-4-yl)oxy]-3-fluorophenyl]-5-(4-fluorophenyl)-4-oxo-1-propan-2-ylpyridine-3-carboxamide], for which the IC50 was over 0.3 µM in experiment [1] and under 0.1 µM in experiment [2].

Take `COc1cnc2c(Oc3ccc(NC(=O)c4cn(C)c(OC)c(-c5ccc(F)cc5)c4=O)cc3F)ccnc2c1` [Compound 587, N-[3-Fluoro-4-[(7-methoxy-1,5-naphthyridin-4-yl)oxy]phenyl]-5-(4-fluorophenyl)-6-methoxy-1-methyl-4-oxopyridine-3-carboxamide]: the IC50 was over 0.3 µM in experiment [1] and under 0.1 µM in experiment [2].

As to `Cc1nc2c(Oc3ccc(NC(=O)c4cn(C(C)C)c(C)c(-c5ccc(F)cc5)c4=O)cc3)ccnc2cc1-c1cnn(C(F)F)c1` [Compound 612, N-[4-[[7-[1-(Difluoromethyl)pyrazol-4-yl]-6-methyl-1,5-naphthyridin-4-yl]oxy]phenyl]-5-(4-fluorophenyl)-6-methyl-4-oxo-1-propan-2-ylpyridine-3-carboxamide hydrochloride], the figures for the IC50 in experiment [1] and in experiment [2] were over 0.3 µM and 0.1 to 0.3 µM, respectively.

As to `Cc1nc2c(Oc3ccc(NC(=O)c4cnc(C)c(-c5ccc(F)cc5)c4O)cc3F)ccnc2cc1-c1cccnc1` [Compound 618, N-[3-Fluoro-4-[(6-methyl-7-pyridin-3-yl-1,5-naphthyridin-4-yl)oxy]phenyl]-5-(4-fluorophenyl)-4-hydroxy-6-methylpyridine-3-carboxamide hydrochloride], the IC50 in experiment [1] was under 0.1 µM; in experiment [2], 0.1 to 0.3 µM.

Turning to `COc1cnc2c(Oc3ccc(NC(=O)c4cn(OC)cc(-c5ccc(F)cc5)c4=O)cc3F)ccnc2c1` [Compound 128, N-[3-Fluoro-4-[(7-methoxy-1,5-naphthyridin-4-yl)oxy]phenyl]-5-(4-fluorophenyl)-1-methoxy-4-oxopyridine-3-carboxamide], the IC50 in experiment [1] and in experiment [2] was under 0.1 µM in each case.

Take `Cc1c(-c2ccc(F)cc2)c(=O)c(C(=O)Nc2ccc(Oc3ccnc4cc(F)cnc34)c(F)c2)cn1C(C)C` [Compound 162, N-[3-Fluoro-4-[(7-fluoro-1,5-naphthyridin-4-yl)oxy]phenyl]-5-(4-fluorophenyl)-6-methyl-4-oxo-1-propan-2-ylpyridine-3-carboxamide]: the IC50 in experiment [1] is over 0.3 µM; in experiment [2], 0.1 to 0.3 µM.

In the case of `COc1cc2nccc(Oc3ccc(NC(=O)c4cn(C(C)C)c(C)c(-c5ccccc5)c4=O)cc3F)c2nc1OC` [Compound 29, N-[4-[(6,7-Dimethoxy-1,5-naphthyridin-4-yl)oxy]-3-fluorophenyl]-6-methyl-4-oxo-5-phenyl-1-propan-2-ylpyridine-3-carboxamide hydrochloride], the IC50 in experiment [1] is 0.1 to 0.3 µM; in experiment [2] it was under 0.1 µM.
